In brackets after ≈: the same amount, converted by molar mass. Entries after “also recorded” stand apart in the source; their conditions may differ.
Columns and labels:
BRD4 of BET family = BRD4 of BET family (Homo sapiens, UniProt O60885); details: background statement, regulates ApoA-1 expression; cited from earlier work
[1] = Stability study: open-dish storage in constant temperature and humidity chambers, XRPD and purity check; assay type: physicochemical; details: for Form change and purity decrease after storage / Purity after storage: open dish
Description: Form CS8 was placed in a constant temperature and humidity chamber at 25° C./60% RH for 2 weeks in open dish. Crystalline form of the sample were tested by XRPD and impurity of the sample were checked. […] Crystalline form of the sample were tested by XRPD and impurity of the sample were checked. […] Two samples of apabetalone Form CS1 were placed in constant temperature and humidity chambers at 25° C./60% RH and 40° C./75% RH for 10 months in open dishes. The samples were characterized by XRPD and chemical impurity. […] Three samples of apabetalone Form CS7 were placed in constant temperature and humidity chambers at 25° C./60% RH and 40° C./75% RH for 4 weeks and 80° C. for 1 day in open dishes. Crystalline form of the sample were tested by XRPD and impurity of the sample were checked. […] Two samples of apabetalone Form CS9 were placed in constant temperature and humidity chambers at 25° C./60% RH and 40° C./75% RH for 10 months in open dishes. Crystalline form of the sample were tested by XRPD and impurity of the sample were tested to check the stability of Form CS9. […] Two samples of apabetalone Form CS11 were placed in constant temperature and humidity chambers at 25° C./60% RH and 40° C./75% RH for 6 weeks in open dishes. Crystalline form of the sample were tested by XRPD and impurity of the sample were tested to check the stability of Form CS11. […] Two samples of apabetalone Form CS4 were placed in open dishes in constant temperature and humidity chambers at 25° C./60% RH and 40° C./75% RH for 10 months. Crystalline form of the sample were tested by XRPD and impurity of the sample were tested to check the stability of Form CS4.

[2] = Mechanical stability: manual grinding for 5 minutes, XRPD; assay type: physicochemical; details: ground manually in a mortar for 5 minutes
Description: Certain amount of Form CS1 was placed in a mortar and ground manually for 5 minutes. XRPD of the solid obtained was tested. Certain amount of Form CS4 was placed in a mortar and ground manually for 5 minutes. Crystalline form of the sample was checked by XRPD.

[3] = Hygroscopicity by dynamic vapor sorption (DVS); assay type: physicochemical; details: for Hygroscopicity class: Chinese Pharmacopoeia 2015 criteria, 80% RH; for Hygroscopicity class / Weight Gain under 80% Relative Humidity: 25° C.; for Weight Gain under 80% Relative Humidity: DVS, about 10 mg of sample; for Form change after DVS test (XRPD): XRPD before and after DVS test
Description: Dynamic Vapor Sorption (DVS) was measured via a SMS (Surface Measurement Systems Ltd.) intrinsic DVS instrument. Its control software is DVS—Intrinsic control software, and its analysis software is DVS—Intrinsic Analysis software. Typical Parameters for DVS test are as follows: • Temperature: 25° C. • Gas and flow rate: N2, 200 mL/min • dm/dt: 0.002%/min • RH range: 0% RH to 95% RH Dynamic vapor sorption (DVS) was applied to test hygroscopicity of Form CS8 in the present disclosure with about 10 mg of sample. […] Dynamic vapor sorption (DVS) was applied to test hygroscopicity of Form CS1 of the present disclosure with about 10 mg of sample. […] Dynamic vapor sorption (DVS) was applied to test hygroscopicity of Form CS7 of the present disclosure with about 10 mg of samples. Dynamic vapor sorption (DVS) was applied to test hygroscopicity of Form CS9 of the present disclosure with about 10 mg of sample. […] Dynamic vapor sorption (DVS) was applied to test hygroscopicity of Form CS4 of the present disclosure with about 10 mg of sample.

[4] = Solubility study: saturated solutions in SGF and FeSSIF, concentration by HPLC; assay type: physicochemical; details: for Solubility FeSSIF: FeSSIF (fed state simulated intestinal fluids, pH=5.0); for Solubility SGF: SGF (simulated gastric fluids)
From the text: High Performance Liquid Chromatography (HPLC) data in the present disclosure were collected from an Agilent 1260 with Diode Array Detector (DAD). The HPLC method parameters for purity test in the present disclosure are as follows: • 1. Column: Waters XBridge C18 150×4.6 mm, 5 μm • 2. Mobile Phase: A: 0.1% TFA in H2O • B: 0.1% TFA in Acetonitrile
The prepared apabetalone Form CS2 was suspended into SGF (simulated gastric fluids) and FeSSIF (fed state simulated intestinal fluids, pH=5.0) to obtain saturated solutions. After being equilibrated for 1 h and 24 h, concentrations of the saturated solutions were measured by HPLC.
The prepared Form CS8 was suspended into SGF (simulated gastric fluids) and FeSSIF (fed state simulated intestinal fluids, pH=5.0) to obtain saturated solutions. After being equilibrated for 1 h, concentrations of the saturated solutions were measured by HPLC.
The prepared Form CS13 was suspended into SGF (simulated gastric fluids) and FeSSIF (fed state simulated intestinal fluids, pH=5.0) to obtain saturated solutions. After being equilibrated for 1 h, 4 h and 24 h, concentrations of the saturated solutions were measured by HPLC.
The prepared apabetalone Form CS20 was suspended into SGF (simulated gastric fluids) and FeSSIF (fed state simulated intestinal fluids, pH=5.0) to obtain saturated solutions. After being equilibrated for 1 h, 4 h and 24 h, concentrations of the saturated solutions were measured by HPLC.
The prepared solid of apabetalone Form CS1 was suspended into SGF (simulated gastric fluids) and FeSSIF (fed state simulated intestinal fluids, pH=5.0) to obtain saturated solutions. After being equilibrated for 1 h, 4 h and 24 h, concentrations of the saturated solutions were measured by HPLC.
The prepared solid of apabetalone Form CS7 was suspended into SGF (simulated gastric fluids) and FeSSIF (fed state simulated intestinal fluids, pH=5.0) to obtain saturated solutions. After being equilibrated for 1 h, 4 h and 24 h, concentrations of the saturated solutions were measured by HPLC.
The prepared solid of apabetalone Form CS9 was suspended into SGF (simulated gastric fluids) and FeSSIF (fed state simulated intestinal fluids, pH=5.0) to obtain saturated solutions. After being equilibrated for 1 h, 4 h and 24 h, concentrations of the saturated solutions were measured by HPLC.
The prepared solid of apabetalone Form CS11 was suspended into SGF (simulated gastric fluids) and FeSSIF (fed state simulated intestinal fluids, pH=5.0) to obtain saturated solutions. After being equilibrated for 1 h, 4 h and 24 h, concentrations of the saturated solutions were measured by HPLC.
The prepared solid of apabetalone Form CS4 was suspended into SGF (simulated gastric fluids) and FeSSIF (fed state simulated intestinal fluids, pH=5.0) to obtain saturated solutions. After being equilibrated for 1 h, 4 h and 24 h, concentrations of the saturated solutions were measured by HPLC.

[5] = Dissolution test of Form CS1 capsule; assay type: physicochemical; details: capsule with 50 mg API; HCl (0.1 mol/L), paddle, 900 mL, 75 rpm, 37° C.; at 20 minutes
Description: Certain amount of the API, microcrystalline cellulose, croscarmellose sodium according to Table 5.8 and 2 mg of magnesium stearate were weighted and blended for 2 minutes. Flakes were prepared using a manual tablet press at 5 KN pressure with a φ20 mm round tooling. The crushed flakes were manually sieved through 20 mesh sieve. 2 mg of magnesium stearate was added, and then the obtained powder was blended for 1 minute. The mixture was encapsulated into a 1# capsule shell, then the capsule was packed in 35 cc HDPE (high density polyethylene) bottle (one capsule per bottle) containing 1 g of desiccant. The bottle was then sealed by sealing machine. […] Dissolution test was performed on the obtained capsule. The conditions are as follows: Medium: HCl (0.1 mol/L) Method: Paddle Volume: 900 mL Speed: 75 rpm Temperature: 37° C.

[6] = Formulation study: form stability in the capsule preparation; assay type: physicochemical; details: capsule with microcrystalline cellulose, croscarmellose sodium, magnesium stearate
Description: Certain amount of the API, microcrystalline cellulose, croscarmellose sodium according to Table 5.8 and 2 mg of magnesium stearate were weighted and blended for 2 minutes. Flakes were prepared using a manual tablet press at 5 KN pressure with a φ20 mm round tooling. The crushed flakes were manually sieved through 20 mesh sieve. 2 mg of magnesium stearate was added, and then the obtained powder was blended for 1 minute. The mixture was encapsulated into a 1# capsule shell, then the capsule was packed in 35 cc HDPE (high density polyethylene) bottle (one capsule per bottle) containing 1 g of desiccant. The bottle was then sealed by sealing machine.

## COc1cc(OC)c2c(=O)[nH]c(-c3cc(C)c(OCCO)c(C)c3)nc2c1 [apabetalone, 2-[4-(2-hydroxyethoxy)-3,5-dimethylphenyl]-5,7-dimethoxyquinazolin-4(3H)-one]
BRD4 of BET family
  Inhibition of BRD4: can inhibit BRD4

## COc1cc(OC)c2c(=O)[nH]c(-c3cc(C)c(OCCO)c(C)c3)nc2c1 [Form CS4, 2-[4-(2-hydroxyethoxy)-3,5-dimethylphenyl]-5,7-dimethoxyquinazolin-4(3H)-one]
[1]; 25° C./60% RH
  Time the form is stable when stored: at least 10 months
[1]; 25° C./60% RH, 10 months
  Form change and purity decrease after storage: No form change and obvious purity decrease
  Purity after storage: 99.04
[1]; 25° C./60% RH, 1 week
  Purity after storage: 99.10
[1]; 25° C./60% RH, 2 weeks
  Purity after storage: 99.06
[1]; 25° C./60% RH, 4 weeks
  Purity after storage: 99.05
[1]; 40° C./75% RH
  Time the form is stable when stored: at least 10 months
[1]; 40° C./75% RH, 10 months
  Form change and purity decrease after storage: No form change and obvious purity decrease
  Purity after storage: 99.02
[1]; 40° C./75% RH, 1 week
  Purity after storage: 99.10
[1]; 40° C./75% RH, 2 weeks
  Purity after storage: 98.99
[1]; 40° C./75% RH, 4 weeks
  Purity after storage: 99.04
[2]
  Form change and crystallinity decrease after manual grinding (XRPD): doesn't change after manual grinding; also recorded: no form change and obvious crystalline decrease
[3]
  Hygroscopicity class: almost non hygroscopic
  Weight Gain under 80% Relative Humidity: 0.12%
  Form change after DVS test (XRPD): doesn't change; also recorded: No form change
[4]; equilibrated 1 h
  Solubility FeSSIF: 140 µg/mL (≈ 378 µM)
  Solubility SGF: 300 µg/mL (≈ 810 µM)
[4]; equilibrated 4 h
  Solubility FeSSIF: 100 µg/mL (≈ 270 µM)
  Solubility SGF: 280 µg/mL (≈ 756 µM)
[4]; equilibrated 24 h
  Solubility FeSSIF: 160 µg/mL (≈ 432 µM)
  Solubility SGF: 380 µg/mL (≈ 1030 µM)

## COc1cc(OC)c2c(=O)[nH]c(-c3cc(C)c(OCCO)c(C)c3)nc2c1 [Form CS1, 2-[4-(2-hydroxyethoxy)-3,5-dimethylphenyl]-5,7-dimethoxyquinazolin-4(3H)-one]
[5]
  Released amount in dissolution test: more than 90%
[1]; 25° C./60% RH
  Time the form is stable when stored: at least 10 months
[1]; 25° C./60% RH, 10 months
  Form change and purity decrease after storage: No form change and obvious purity decrease
  Purity after storage: 99.24
[1]; 25° C./60% RH, 1 week
  Purity after storage: 99.27
[1]; 25° C./60% RH, 2 weeks
  Purity after storage: 99.23
[1]; 25° C./60% RH, 5 weeks
  Purity after storage: 99.25
[1]; 40° C./75% RH
  Time the form is stable when stored: at least 10 months
[1]; 40° C./75% RH, 10 months
  Form change and purity decrease after storage: No form change and obvious purity decrease
  Purity after storage: 99.21
[1]; 40° C./75% RH, 1 week
  Purity after storage: 99.20
[1]; 40° C./75% RH, 2 weeks
  Purity after storage: 99.20
[1]; 40° C./75% RH, 5 weeks
  Purity after storage: 99.25
[6]
  Stability of the form in the preparations: stable in the preparations
[2]
  Form change and crystallinity decrease after manual grinding (XRPD): no form change and obvious crystallity decrease; also recorded: doesn't change after manual grinding
[3]
  Hygroscopicity class: almost non hygroscopic
  Weight Gain under 80% Relative Humidity: 0.13%
  Form change after DVS test (XRPD): No form change; also recorded: doesn't change
[4]; equilibrated 1 h
  Solubility FeSSIF: 140 µg/mL (≈ 378 µM)
  Solubility SGF: 310 µg/mL (≈ 837 µM)
[4]; equilibrated 4 h
  Solubility FeSSIF: 110 µg/mL (≈ 297 µM)
  Solubility SGF: 290 µg/mL (≈ 783 µM)
[4]; equilibrated 24 h
  Solubility FeSSIF: 140 µg/mL (≈ 378 µM)
  Solubility SGF: 330 µg/mL (≈ 891 µM)
